For orientation: Ki means the equilibrium dissociation constant of an inhibitor or competing ligand from its target.

The target in one test is T1, delta opioid receptor (Rattus norvegicus, UniProt P33533).
T1 construct: from tissue; host or cells: rat forebrain homogenate (male Wistar rats), particulate membrane preparation
Nature of the test: Rat Brain Delta Opioid Receptor Binding Assay. The conditions noted are these: rat forebrain membrane preparation; [3H]DPDPE or [3H]naltrindole, 25° C., 2.5 h.

The next test has as its target T2, mu opioid receptor (Rattus norvegicus, UniProt P33535).
T2 construct: Following incubation with the mu selective peptide ligand, ˜0.8 nM [^3H]DAMGO; from tissue; host or cells: rat forebrain homogenate (male Wistar rats), particulate membrane preparation
Nature of the test: Rat Brain Mu Opioid Receptor Binding Assay. The conditions noted are these: rat forebrain membrane preparation; [3H]DAMGO, 25° C., 2.5 h.

T1 sequence (P33533 whole entry): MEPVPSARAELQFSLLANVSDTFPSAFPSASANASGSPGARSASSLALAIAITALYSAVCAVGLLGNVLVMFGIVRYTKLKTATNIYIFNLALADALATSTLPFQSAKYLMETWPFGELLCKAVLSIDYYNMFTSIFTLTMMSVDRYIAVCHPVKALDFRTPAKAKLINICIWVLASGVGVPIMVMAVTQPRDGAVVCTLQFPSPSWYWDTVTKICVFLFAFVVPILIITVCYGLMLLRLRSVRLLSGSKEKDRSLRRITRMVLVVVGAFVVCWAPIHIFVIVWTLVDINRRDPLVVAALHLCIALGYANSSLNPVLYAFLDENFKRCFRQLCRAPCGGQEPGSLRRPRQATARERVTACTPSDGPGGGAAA
T2 sequence (P33535 whole entry): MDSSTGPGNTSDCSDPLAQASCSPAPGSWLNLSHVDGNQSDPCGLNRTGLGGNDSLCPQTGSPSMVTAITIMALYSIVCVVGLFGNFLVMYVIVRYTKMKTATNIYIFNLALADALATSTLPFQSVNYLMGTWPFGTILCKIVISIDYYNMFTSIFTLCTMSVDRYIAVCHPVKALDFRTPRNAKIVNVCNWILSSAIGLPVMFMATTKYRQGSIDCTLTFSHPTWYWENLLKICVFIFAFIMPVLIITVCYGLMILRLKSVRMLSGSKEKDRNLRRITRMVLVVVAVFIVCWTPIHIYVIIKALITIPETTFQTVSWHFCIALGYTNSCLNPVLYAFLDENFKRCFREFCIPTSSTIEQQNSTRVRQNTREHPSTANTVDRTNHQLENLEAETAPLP

On to `CC(=O)Nc1ccccc1-c1ccc2c(c1)Sc1ccccc1N2C1C[C@H]2CC[C@@H](C1)N2Cc1ncc[nH]1` (mixture of isomers) [Compound 15i, N-(2-{10-[8-(1H-Imidazol-2-ylmethyl)-8-aza-bicyclo[3.2.1]oct-3-yl]-10H-phenothiazin-3-yl}-phenyl)-acetamide], for which the inhibition constant Ki is 630 nM at delta opioid receptor and 169 nM at mu opioid receptor.
In the case of `CC(=O)Nc1ccccc1-c1ccc2c(c1)Sc1ccccc1N2C1C[C@H]2CC[C@@H](C1)N2C` (mixture of isomers) [Compound 16i, N-{2-[10-(8-Methyl-8-aza-bicyclo[3.2.1]oct-3-yl)-10H-phenothiazin-3-yl]-phenyl}-acetamide], the inhibition constant Ki at delta opioid receptor came out at 1450 nM; at mu opioid receptor, 2650 nM.
Take `COC(=O)c1ccc2c(c1)Oc1ccccc1N2C1CC2CCC(C1)N2C` (stereo not shown) [Compound 2a, 10-(8-Methyl-8-aza-bicyclo[3.2.1]oct-3-yl)-10H-phenoxazine-3-carboxylic acid methyl ester]: the Ki at delta opioid receptor turned out to be 697 nM; at mu opioid receptor it was 5150 nM.
On the same counts, the results for `CN1C2CCC1CC(N1c3ccccc3Oc3cc(-c4noc(=O)[nH]4)ccc31)C2` (stereo not shown) [Compound 2h, 3-[10-(8-Methyl-8-aza-bicyclo[3.2.1]oct-3-yl)-10H-phenoxazin-3-yl]-4H-[1,2,4]oxadiazol-5-one] are 598 nM and 2890 nM.
In the case of `CN(CCc1ccccc1)C(=O)c1ccc2c(c1)Oc1ccccc1N2C1CC2CCC(C1)N2C` (stereo not shown) [Compound 6a, 10-(8-Methyl-8-aza-bicyclo[3.2.1]oct-3-yl)-10H-phenoxazine-3-carboxylic acid methyl-phenethyl-amide], the inhibition constant (Ki) was 575 nM at delta opioid receptor and 819 nM on mu opioid receptor.
On the same counts, the results for `c1ccc(CCN2[C@@H]3CC[C@H]2CC(N2c4ccccc4Oc4cc(-c5nnn[nH]5)ccc42)C3)cc1` (stereo partly drawn) [Compound 7b, Endo-10-(8-Phenethyl-8-aza-bicyclo[3.2.1]oct-3-yl)-3-(1H-tetrazol-5-yl)-10H-phenoxazine] are 5480 nM and 288 nM.
As for `O=c1[nH]c(-c2ccc3c(c2)Oc2ccccc2N3[C@H]2C[C@H]3CC[C@@H](C2)N3CCc2ccccc2)no1` [Compound 7d, Endo-3-[10-(8-Phenethyl-8-aza-bicyclo[3.2.1]oct-3-yl)-10H-phenoxazin-3-yl]-4H-[1,2,4]oxadiazol-5-one], the values for the Ki on delta opioid receptor and at mu opioid receptor were 2630 nM and 123 nM, respectively.
The matching figures for `N#Cc1ccc2c(c1)Oc1ccccc1N2[C@H]1C[C@H]2CC[C@@H](C1)N2` [Compound 8b, Endo-10-(8-Aza-bicyclo[3.2.1]oct-3-yl)-10H-phenoxazine-3-carbonitrile]: 1900 nM and greater than 10000 nM.

These data come from US7652005B2, “Tricyclic δ-opioid modulators” (Janssen Pharmaceutica N.V., priority 2004, dated 2010).
